Source: PMC7037636, “Synthesis of New Series of 2-C-(β-D-glucopyranosyl)-Pyrimidines and Their Evaluation as Inhibitors of Some Glycoenzymes” (Molecules, 2020)

Biological target: T1, bovine liver β-galactosidase
T1 construct: gene GLB1; commercial native enzyme from bovine liver (Sigma-Aldrich)
Experiment: PNP-β-Gal hydrolysis, absorbance at […] nm
Assay type: biochemical, Bos taurus
Conditions: 1 mM PNP-β-Gal, citrate-phosphate buffer pH 7.3, 37 °C, 0.12 mg/mL enzyme; read-out: Inh.

IC50: 294 ± 50 µM
Compound: CCOC(=O)c1c(-c2ccccc2)nc([C@@H]2O[C@H](CO)[C@@H](O)[C@H](O)[C@H]2O)[nH]c1=O [11h, Ethyl 2-(β-D-glucopyranosyl)-4-phenyl-6-oxo-1,6-dihydropyrimidine-5-carboxylate]
